What was measured:
Set-up in all cases: species or system Mice
dopamine D2 receptor = target: T1, dopamine D2 receptor (Mus musculus, UniProt P61168); assay: binding affinity for dopamine D2 receptor
T1 construct: serotonin (5-HT2) receptors relative to dopamine (D2) receptors in the brain; from tissue; host or cells: brain (rodent)
Source text: (§1) An assessment of dopamine antagonism was made in rodent models. The methods and procedures used can be found in J. Med. Chem., 44 (3), 372-389, 2001 and are incorporated herein by reference. […] It is this combination of serotonin and dopamine receptor antagonism, with higher relative 5-HT2 to D2 receptor affinity that indicates the compound of Formula I as a potent atypical antipsychotic. J. Goldstein, Quetiapine Fumarate (Seroquel): a new atypical antipsychotic, 35(3) Drugs of Today 193-210 (1999). […] Low potency at the D2 receptor is considered advantageous since it a characteristic shared with Clozapine.

[1] = target: T2, brain serotonin 5-HT2 receptor (Mus musculus, UniProt P35363); assay: binding affinity for brain serotonin 5-HT2 receptor
T2 construct: from tissue; host or cells: brain (rodent)
Source text: as §1

dopamine D1 receptor = target: T3, dopamine D1 receptor (Mus musculus, UniProt Q61616); assay: binding affinity for dopamine D1 receptor; details: tested as the dihydrochloride salt; read-out: binding affinity for dopamine D1 receptor (K1)
T3 construct: from tissue
Source text: as §1

T1 sequence (P61168 whole entry): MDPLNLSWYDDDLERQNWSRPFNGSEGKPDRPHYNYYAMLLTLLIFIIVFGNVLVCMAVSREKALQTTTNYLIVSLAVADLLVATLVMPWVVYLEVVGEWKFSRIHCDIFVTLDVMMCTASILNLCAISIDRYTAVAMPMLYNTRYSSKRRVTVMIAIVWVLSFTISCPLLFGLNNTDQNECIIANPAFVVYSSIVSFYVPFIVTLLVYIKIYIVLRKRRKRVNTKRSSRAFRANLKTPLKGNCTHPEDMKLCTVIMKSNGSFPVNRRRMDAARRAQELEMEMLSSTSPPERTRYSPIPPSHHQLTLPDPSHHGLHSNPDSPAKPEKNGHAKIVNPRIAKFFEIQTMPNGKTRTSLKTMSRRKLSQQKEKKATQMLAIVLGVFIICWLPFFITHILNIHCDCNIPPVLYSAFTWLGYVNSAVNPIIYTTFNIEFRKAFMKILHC
T2 sequence (P35363 whole entry): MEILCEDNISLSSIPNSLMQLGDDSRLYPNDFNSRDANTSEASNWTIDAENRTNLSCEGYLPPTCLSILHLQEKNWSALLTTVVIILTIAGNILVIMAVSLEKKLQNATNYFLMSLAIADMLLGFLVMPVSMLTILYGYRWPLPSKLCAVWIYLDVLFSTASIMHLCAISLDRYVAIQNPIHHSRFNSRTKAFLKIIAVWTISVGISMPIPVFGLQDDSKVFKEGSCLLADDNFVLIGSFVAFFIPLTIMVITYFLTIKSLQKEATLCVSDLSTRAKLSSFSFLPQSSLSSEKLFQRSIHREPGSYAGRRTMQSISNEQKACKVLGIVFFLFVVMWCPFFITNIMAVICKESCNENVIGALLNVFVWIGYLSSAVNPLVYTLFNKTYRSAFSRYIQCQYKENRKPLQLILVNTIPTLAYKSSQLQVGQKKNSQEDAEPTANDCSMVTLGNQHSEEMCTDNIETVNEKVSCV
T3 sequence (Q61616 whole entry): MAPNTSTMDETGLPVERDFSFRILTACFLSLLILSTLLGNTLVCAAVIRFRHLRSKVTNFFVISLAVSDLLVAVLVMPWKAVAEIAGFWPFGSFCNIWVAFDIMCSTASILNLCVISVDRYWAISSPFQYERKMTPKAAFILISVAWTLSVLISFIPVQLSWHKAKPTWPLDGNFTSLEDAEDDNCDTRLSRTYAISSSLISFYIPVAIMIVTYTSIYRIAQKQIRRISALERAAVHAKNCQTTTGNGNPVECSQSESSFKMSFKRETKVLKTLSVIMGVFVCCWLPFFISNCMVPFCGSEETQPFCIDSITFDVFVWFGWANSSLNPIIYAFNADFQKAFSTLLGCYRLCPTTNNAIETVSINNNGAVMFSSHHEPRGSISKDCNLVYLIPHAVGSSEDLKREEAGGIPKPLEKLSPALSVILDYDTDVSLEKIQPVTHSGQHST

affinity for D2 (in words) (dopamine D2 receptor): moderate affinity
Ki (dopamine D2 receptor; tested as the dihydrochloride salt, read-out: binding affinity for dopamine D2 receptor (K1)): 35 nM
affinity for serotonin (5-HT2) receptors relative to dopamine (D2) receptors in the brain ([1]; as the dihydrochloride salt, 5-HT2 versus D2): higher affinity
Ki ([1]; tested as the dihydrochloride salt, brain receptor, read-out: binding affinity for brain serotonin 5-HT2 receptor (K1)): 6.5 nM
Ki (dopamine D1 receptor): 288 nM
Structure (SMILES): Oc1ccc2c(c1)Sc1ccccc1C(N1CCNCC1)=N2 [Formula I, 11-piperazin-1-yldibenzo[b,f][1,4]thiazepin-7-ol]

Reference: US20050026899A1, “Metabolite” (priority 2003, published 2005)
